This is an account of results in patent US20210069230A1, “SYNERGISTIC DRUG COMBINATIONS PREDICTED FROM GENOMIC FEATURES AND SINGLE-AGENT RESPONSE PROFILES” (THE BROAD INSTITUTE, INC., priority 2018, published 2021).

Series [1] concerns WM2664 cells overexpressing ABCB1. Description: Lentiviral ORF overexpression, compound sensitivity (CellTiter-Glo, GR). In kind it is cell-based. Conditions: 72 hours. The protocol: (§1) Cell lines were taken from viably frozen stocks of the same original provenance as for CTRP and DepMap data, with identity confirmed by SNP-based DNA fingerprinting as described previously (12, 13, 39). Cell lines were propagated using the same media and culture conditions as for CTRPv2.0 experiments. […] For live-cell imaging, cells were plated into clear-bottom plates (Corning) and imaged on an IncuCyte S3 throughout the course of the experiment. For CellTiter-Glo experiments, the initial viability of a subset of plated cells was established at the same time as compound addition using CellTiter-Glo as described previously (24). […] DMSO- and D0-normalized concentration-response curves were generated using four-parameter nonlinear regression using the drc package in R (40). Biphasic curves were also fit and prioritized relative to standard four-parameter curves where appropriate using the BIC (Bayesian information criteria) metric. […] General-purpose optimization (Nelder-Mean algorithm) was used for single-agent fits, and the “model” option was used to predict variance. Overall significance was assessed using the bootstrapped meanR test (n=1000 iterations), and per-concentration significance using maxR, as described by the package authors.
(§2) Infection and selection were carried out according to GPP Viral Infection protocols, followed by cell seeding in 384-well plates for compound treatment or harvesting for Western blotting as described above.
(§3) Parental cell lines were virally transduced with cDNAs that constitutively overexpressed BCL2L1, AIFM2, or MGLL (in G402 and CJM cells); ABCB1 or MGMT (in WM2664 cells); SLC7A11 (in BT12 and G402 cells); MCL1 (in HCC1500 cells); or IRS2 (in T47D cells) and subsequently drug sensitivity was measured. To account for potential differences in growth rates and to distinguish between cytostatic and cytotoxic drug responses, the normalized growth rate inhibition (GR) metric was used to assess cell viability (FIG. 3A) (18).

Another series relates to type IIA topoisomerases. Conditions: cited from earlier work.
The subject of series [2] is G402, G402-MGLL and KMRC3 cells. Description: Chromatin-modifying compounds and GSK-J4 analogues with MGLL overexpression or JZL184 co-treatment. Format: cell-based. The conditions noted are these: for effect of JZL184 co-treatment on sensitivity: cells expressing MGLL. The protocol: as §1
To assess whether MGLL could augment sensitivity to other inhibitors of chromatin modifying enzymes, a panel of other small molecules annotated to inhibit chromatin-related processes, targeting other KDM proteins, histone deacetylases (HDACs), and histone methyltransferases (e.g., EZH2, DOT1L) was tested. […] The effects of a number of GSK-J4 analogues (FIG. 7B) were also tested.

The conditions of series [3]: cited from earlier work.
A further series has as its system KDM6 proteins. Conditions: cited from earlier work.
Series [4] concerns cell lines with high expression of the nominated protein. Description: 72-hour co-treatment of index compounds with co-target inhibitors. Format: cell-based. Conditions: single agent. The protocol: GAPDH was used as a loading control.
as §1

Series [5] deals with Monoacylglycerol lipase (MAGL) (Mus musculus, UniProt O35678). Conditions: dose of 16 mg/kg; cited from earlier work.
The next series has as its system 242 cell lines in CTRPv1. The conditions noted are these: JZL184 alone; cited from earlier work.
A further series has as its system 27 cell lines. The series can be described thus: GSK-J4 with or without JZL184 in 27 cell lines (CellTiter-Glo). Format: cell-based. The conditions noted are these: individual validation experiments or the pooled PRISM assay. The procedure:
as §1
Background: In ATP-based viability assays light output follows the ATP content of the culture.

Another series has as its target MGLL (Homo sapiens, UniProt Q99685). Description: Recombinant protein/mass spec assay of MGLL-mediated modification. In kind it is biochemical. The text has this:
The GSK-J4-modifying impact of MGLL is examined further via a recombinant protein/mass spec assay.

In a further series the test system is SIMA cell line. Description: KX2-391 response versus ABCB1 expression and activity (elacridar co-treatment). Format: cell-based. The text has this:
FIGS. 14A to 14S present supporting data for co-inhibition experiments across additional compounds and cellular models, further to FIG. 3 above. […] FIG. 14R presents dependency data from the DepMap portal (www.depmap.org) for BCL2L1 as a function of BCL2L1 expression (blue to red) and measured sensitivity (GR50) to the BCL2L1 inhibitor WEHI-539. FIG. 14S presents dependency data from the DepMap portal (www.depmap.org) for MCL1 as a function of […] (blue to red) and measured sensitivity (GR50) to the MCL1 inhibitor S63845.
The instant approach can therefore be applied and extended in a number of ways. First, it can be used to identify potential resistance mechanisms that may contribute to relapse in initially responsive settings. Second, it can be used to prioritize combinations for increased initial efficacy if the co-target biomarker is already present, or to de-prioritize single-agent treatment where it is likely to be less efficacious, particularly where alternatives might exist. For example, drug efflux pump expression (e.g., of ABCB1, encoding P-glycoprotein) has been observed as a clinical mechanism of resistance to various chemotherapeutics (30). ABCB1 inhibitors were discontinued from clinical development, largely due to challenges with selectivity and on-target toxicity (31). […]

In the next series the test system is MEWO cell line. The series can be described thus: CRISPR-Cas9 knockout of AIFM2, response to compound. In kind it is cell-based. The conditions noted are these: four different sgRNAs. The procedure:
(§4) Cas9 stably-infected HEC1A, MEWO, SUIT2, and WM2664 cells and sgRNAs (pXPR_BRD003 vector) targeting AIFM2, IRS2, MGLL, or control guides (non-cutting) were acquired from the GPP (FIG. 23). Cell line identities were confirmed to match parental cells using SNP fingerprinting. Virus was generated and infection carried out as described above. After puromycin selection (3 μg/mL for MEWO, 1.5 μg/mL for WM2664, 2 μg/mL for SUIT2 and HEC1A), cells were seeded in 384-well plates for compound treatment or harvested for Western blotting as described above.
(§5) As small-molecule inhibitors were not available for AIFM2 or IRS2, CRISPR-Cas9 was used to knock out these genes in proficient cell lines.

In series [6] the test system is BT12 and G402 cells overexpressing SLC7A11. Description: Lentiviral ORF overexpression, compound sensitivity (CellTiter-Glo, GR). Format: cell-based. Conditions: 72 hours. The protocol: as §1, §2, §3
In series [7] the test system is G402 and CJM cells overexpressing AIFM2. The description is as above. In kind it is cell-based. Conditions: 72 hours. The protocol: as §1, §2, §3
The test system of series [8] is WM2664 cells overexpressing MGMT. The series can be described thus: Lentiviral ORF overexpression, compound sensitivity (live-cell imaging, GR). In kind it is cell-based. Conditions: 120 hours. The protocol: Cell lines were taken from viably frozen stocks of the same original provenance as for CTRP and DepMap data, with identity confirmed by SNP-based DNA fingerprinting as described previously (12, 13, 39). Cell lines were propagated using the same media and culture conditions as for CTRPv2.0 experiments. […] For live-cell imaging, cells were plated into clear-bottom plates (Corning) and imaged on an IncuCyte S3 throughout the course of the experiment. For CellTiter-Glo experiments, the initial viability of a subset of plated cells was established at the same time as compound addition using CellTiter-Glo as described previously (24). […] DMSO- and D0-normalized concentration-response curves were generated using four-parameter nonlinear regression using the drc package in R (40). […] Overall significance was assessed using the bootstrapped meanR test (n=1000 iterations), and per-concentration significance using maxR, as described by the package authors. […]
Parental cell lines were virally transduced with cDNAs that constitutively overexpressed BCL2L1, AIFM2, or MGLL (in G402 and CJM cells); ABCB1 or MGMT (in WM2664 cells); SLC7A11 (in BT12 and G402 cells); MCL1 (in HCC1500 cells); or IRS2 (in T47D cells) and subsequently drug sensitivity was measured. […]

Series [9] has as its system HCC1500 cells overexpressing MCL1. Description: Lentiviral ORF overexpression, compound sensitivity (CellTiter-Glo, GR). Conditions: 72 hours. Format: cell-based. The protocol:
as §1, §2, §3

In a further series the test system is WM2664 cells. The series can be described thus: CRISPR-Cas9 knockdown of IRS2, response to compound. Format: cell-based. The procedure:
as §4, §5

Read-outs that look alike come from different tables or passages of the source.

MGLL, sequence (Q99685 whole entry): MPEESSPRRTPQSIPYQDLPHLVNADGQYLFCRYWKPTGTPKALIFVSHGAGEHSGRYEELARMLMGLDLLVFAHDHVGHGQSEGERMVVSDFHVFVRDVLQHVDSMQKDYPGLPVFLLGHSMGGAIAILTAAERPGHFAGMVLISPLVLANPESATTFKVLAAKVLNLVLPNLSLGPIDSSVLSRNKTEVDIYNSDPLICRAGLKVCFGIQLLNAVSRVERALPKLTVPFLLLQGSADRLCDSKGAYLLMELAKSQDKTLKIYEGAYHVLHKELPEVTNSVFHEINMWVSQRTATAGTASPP
Monoacylglycerol lipase (MAGL), sequence (O35678 whole entry): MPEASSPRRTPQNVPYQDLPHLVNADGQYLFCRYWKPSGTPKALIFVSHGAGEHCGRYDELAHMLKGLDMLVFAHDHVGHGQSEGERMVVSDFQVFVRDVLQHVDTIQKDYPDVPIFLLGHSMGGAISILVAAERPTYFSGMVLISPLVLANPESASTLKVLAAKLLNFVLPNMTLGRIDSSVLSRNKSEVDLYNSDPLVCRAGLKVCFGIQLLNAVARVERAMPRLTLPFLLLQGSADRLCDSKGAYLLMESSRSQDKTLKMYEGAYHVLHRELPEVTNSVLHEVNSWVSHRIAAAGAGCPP

As to `CC[C@@H]1C(=O)N(C)c2cnc(Nc3ccc(C(=O)NC4CCN(C)CC4)cc3OC)nc2N1C1CCCC1` [BI-2536], in [1], the “resistance (GR50 shift) conferred by ABCB1 overexpression” value was 40 fold.
On to `O=C(O)c1cn(C2CC2)c2cc(N3CCNCC3)c(F)cc2c1=O` [Ciprofloxacin], for which, in the series with type IIA topoisomerases, the “targets prokaryotes more than eukaryotic topo IIs” value is on record as “in excess of a thousandfold”.
For `O=C(O)CCNc1cc(N2CCc3ccccc3CC2)nc(-c2ccccn2)n1` [GSK-J1], in series [2], the “concentrations at which toxicity was shown” value is over 20 µM and the “effect of MGLL overexpression or JZL184 co-treatment/inhibition on toxicity” value is on record as “not affected”. Moreover, the cellular permeability entry in series [3] was “cell-impermeable”.
Turning to `O=C(O)CCNc1cc(N2CCc3ccccc3CC2)nc(-c2cccnc2)n1` [GSK-J2], the “effect of MGLL overexpression or JZL184 co-treatment/inhibition on toxicity” value in [2] is on record as “not affected”. Moreover, the toxicity in series [2] (at 80 μM) is under 30%. Moreover, in the series on KDM6 proteins, the “activity against KDM6” value was “inactive”.
Take `CCOC(=O)CCNc1cc(N2CCc3ccccc3CC2)nc(-c2cccnc2)n1` [GSK-J5]: in [2], the “effect of MGLL overexpression on toxicity” value is given as “reduced toxicity”, the “potency relative to GSK-J4” value is reported as “much less potent” and the “effect of JZL184 co-treatment on sensitivity” value is on record as “sensitized by JZL184”.
As to `O=C(Oc1ccc([N+](=O)[O-])cc1)N1CCC(C(O)(c2ccc3c(c2)OCO3)c2ccc3c(c2)OCO3)CC1` [JZL184, 4-nitrophenyl 4-(dibenzo[d][1,3]dioxol-5-yl(hydroxy)methyl)piperidine-1-carboxylate], the “growth impact of combination partner on its own” value in [4] is reported as “only modest growth impact”. The “blockade of MAGL” value in series [5] is “near-complete blockade”. Besides, in the series on 242 cell lines in CTRPv1, the dose-dependent toxicity entry is “did not demonstrate dose-dependent toxicity”. Also, the “effects of JZL184 alone” value in the series with 27 cell lines is given as “very modest effects”.
With `OCCCNc1cc(N2CCc3ccccc3CC2)nc(-c2ccccn2)n1` [KDOBA67], the “toxicity relative to GSK-J4” value in [2] (MGLL-deficient cell lines) was “equivalent toxicity”. Besides, the “effect of JZL184 co-treatment on sensitivity” value in series [2] was “could not be further sensitized”. In addition, in [2] (resistant lines that expressed MGLL either endogenously or ectopically), the “potency relative to GSK-J4” value is on record as “more potent”. In [3], the cellular permeability entry is “cell-permeable”. In addition, the MGLL-mediated modification result at MGLL is listed as “no modification”.
With `O=C(Cc1ccc(-c2ccc(OCCN3CCOCC3)cc2)cn1)NCc1ccccc1` [KX2-391], in the series with SIMA cell line, the “relation of response to ABCB1” value is recorded as “not correlated with ABCB1 expression or affected by the presence of active ABCB1 protein”.
Consider `Cc1onc(C(=O)N2CCN(C(c3ccc(Cl)cc3)c3ccc(Cl)cc3)CC2)c1[N+](=O)[O-]` [ML210], for which the “effect of targeting AIFM2 with sgRNAs on response” value in the series with MEWO cell line was “sensitization”. Moreover, in series [6], the “resistance (GR50 shift) conferred by SLC7A11 overexpression” value was 8 fold. Besides, the “resistance (GR50 shift) conferred by AIFM2 overexpression” value in series [7] was over 500 fold.
As for `O=C1C2CCN(CC2)C1(CO)CO` [PRIMA-1], the “resistance (GR50 shift) conferred by SLC7A11 overexpression” value in [6] was 20 fold. Further, the “resistance (GR50 shift) conferred by AIFM2 overexpression” value in [7] is listed as “approximately threefold”.
As for `CC(C)(C)c1cnc(CSc2cnc(NC(=O)C3CCNCC3)s2)o1` [SNS-032], the “resistance (GR50 shift) conferred by ABCB1 overexpression” value in [1] is listed as 25 fold.
Take `O=NN(CCCl)C(=O)NCCCl` [carmustine]: the “resistance (GR50 shift) conferred by MGMT overexpression” value in series [8] was determined as 4 fold.
`CCOc1ccccc1-n1c(C(C)N2CCN(C(=O)COc3ccc(Cl)cc3)CC2)nc2ccccc2c1=O` (stereo not drawn) [erastin]: the “resistance (GR50 shift) conferred by SLC7A11 overexpression” value in series [6] was 30 fold.
`CC1(C)CCC(c2ccc(Cl)cc2)=C(CN2CCN(c3ccc(C(=O)NS(=O)(=O)c4ccc(N[C@H](CCN5CCOCC5)CSc5ccccc5)c(S(=O)(=O)C(F)(F)F)c4)cc3)CC2)C1` [navitoclax]: in [9], the “resistance (GR50 shift) conferred by MCL1 overexpression” value is recorded as 100 fold.
With `CC(=O)O[C@H]1C(=O)[C@@]2(C)[C@H]([C@H](OC(=O)c3ccccc3)[C@]3(O)C[C@H](OC(=O)[C@H](O)[C@@H](NC(=O)c4ccccc4)c4ccccc4)C(C)=C1C3(C)C)[C@]1(OC(C)=O)CO[C@@H]1C[C@@H]2O` [paclitaxel], the “resistance (GR50 shift) conferred by ABCB1 overexpression” value in series [1] is on record as 50 fold.
For `CS(=O)(=O)N1CCN(Cc2cc3nc(-c4cccc5[nH]ncc45)nc(N4CCOCC4)c3s2)CC1` [pictilisib], in the series with WM2664 cells, the “effect of knockdown of IRS2 on response” value is given as “modest but consistent sensitization”.
Consider `CC(C)=CC[C@@H](O)C1=CC(=O)c2c(O)ccc(O)c2C1=O` [shikonin], for which, in series [6], the “resistance (GR50 shift) conferred by SLC7A11 overexpression” value is reported as 10 fold.
